Measured values: patent US11660287B2, “Agent for preventing or treating spinocerebellar ataxia” (FUJIFILM Toyama Chemical Co., Ltd., priority 2017, dated 2023)

System: Mild to Moderate AD Patients
Assay: Phase II placebo-controlled trial: change in brain volume by volumetric MRI (vMRI) at week 52
Type: in vivo, human
Settings: for Change in hippocampus volume, least square means (standard error) / Change in whole brain volume, least square means (standard error): mixed-effect model
Excerpt: Test Example 1 Multicenter Randomized Double-Blind Phase II Placebo-Controlled Trial for Assessing Effectiveness and Safety of Compound A in Mild to Moderate AD Patients
Subject (selection criteria): Patients were screened in a period from 42 days before treatment assignment to the assignment based on the following selection criteria.
• Patients who were probable AD and are 55 years old or older and 85 years old or younger at the time of obtaining consent of screening. • Patients with an MMSE score of 12 to 22 at the time of screening • Patients with a Modified Hachinski Ischemia Scale score of 4 or less • Patients who have been treated with a donepezil hydrochloride or rivastigmine transdermal system for at least 4 months before the baseline and with a stable dose thereof for 3 months before the baseline. • In the case of patients who have received memantine in addition to being treated with a donepezil hydrochloride or rivastigmine transdermal system, patients who have been treated with memantine for at least 4 months before the baseline and with a stable dose thereof for 3 months before the baseline. • Patients whose brain MRI or CT results match AD at the time of screening Organization of groups: Patients matched (484 patients) were randomly divided into the following 3 groups and the trial was started. (1) High dose group: 224 mg of a test compound (160 mg in terms of Compound A) was orally administered once a day for 4 weeks and then 448 mg of a test compound (320 mg in terms of Compound A) was orally administered once a day for 48 weeks (158 patients) (2) Low dose group: 224 mg of a test compound (160 mg in terms of Compound A) was orally administered once a day for 52 weeks (166 patients) (3) Placebo group: placebo was orally administered once a day for 52 weeks (158 patients) Method of Assessment: Volumetric MRI
Brain volume of subjects was measured by vMRI scan at the screening and after 52 weeks, and the volume change of the whole brain and the hippocampus of the subjects were quantified to assess brain atrophy based on the change from the screening.
Furthermore, volume change of the whole brain and 101 areas (obtained by dividing the areas existing in both the left brain and the right brain of the Brodmann areas (1 to 52) into 101 areas) in each subject was quantified to assess brain atrophy based on the change from the screening.
Changes in the volume of the whole brain and the hippocampus after 52 weeks from the baseline were compared between the high dose group and the placebo group, and between the low dose group and the placebo group based on Mixed-effect Models. For models, the treatment groups were included as a fixed effect, age, baseline of the respective brain volumes (the whole brain or the hippocampus), baseline of MMSE and ApoE4 genotype (positive/negative) were included as covariates, and trial sites were included as a random effect.
Furthermore, changes in the respective volumes of the whole brain and the 101 areas after 52 weeks from the baseline were compared between the high dose group and the placebo group, and between the low dose group and the placebo group.

[1] = High dose group (160 mg for 4 weeks, then 320 mg in terms of Compound A, oral once a day, for 48 weeks), week 52 vs baseline, vMRI
[2] = Low dose group (160 mg in terms of Compound A, oral once a day, 52 weeks), week 52 vs baseline, vMRI

Question: With `OC1CN(CCCOCCc2ccc3sccc3c2)C1` [Compound A, 1-(3-(2-(1-benzothiophen-5-yl)ethoxy)propyl)azetidin-3-ol] as the compound, how does the “Change in the volume of the whole brain and the hippocampus compared with placebo group (in words)” value (Compound A group vs placebo group, week 52 from baseline) read?
Answer: volume reduction tended to be smaller

Question: And the “Volume reduction of the cerebellum compared to the placebo group (in words)” value (Compound A high dose group)?
Answer: same tendency as in the low dose group was observed

Question: And the “Difference in effects on the change in hippocampal volume vs placebo group (in words)” value (Compound A low dose group vs placebo group, week 52)?
Answer: statistically significant

Question: What about the “Volume reduction of the cerebellum compared to the placebo group (in words)” value (Compound A low dose group, whole brain and 101 areas, Nos. 1, 2, 4 and 8 in Table 2) of the same compound?
Answer: particularly tended to be suppressed

Question: And the “Change in hippocampus volume, least square means (standard error)” value [1]?
Answer: −0.31(0.057) mL

Question: And the “Change in whole brain volume, least square means (standard error)” value [1]?
Answer: −20.05(3.821) mL

Question: What about the “Change in hippocampus volume, difference from placebo group (95% confidence interval)” value (High dose group, week 52 vs baseline, p-value 0.0996) of the same compound?
Answer: 0.08(−0.02, 0.18) mL

Question: And the “Change in whole brain volume, difference from placebo group (95% confidence interval)” value (High dose group, week 52 vs baseline, p-value 0.2581)?
Answer: 3.94(−2.91, 10.79) mL

Question: What about the “Change in hippocampus volume, least square means (standard error)” value [2] of the same compound?
Answer: −0.27(0.053) mL

Question: What about the “Change in whole brain volume, least square means (standard error)” value [2] of the same compound?
Answer: −21.37(3.582) mL

Question: What about the “Change in hippocampus volume, difference from placebo group (95% confidence interval)” value (Low dose group, week 52 vs baseline, p-value 0.0106) of the same compound?
Answer: 0.12(0.03, 0.22) mL

Question: And the “Change in whole brain volume, difference from placebo group (95% confidence interval)” value (Low dose group, week 52 vs baseline, p-value 0.4456)?
Answer: 2.63(−4.15, 9.40) mL

Question: And the “Change in brain volume, mean value: ctx-lh-parsorbitalis” value (Low dose group, week 52 vs baseline, vMRI, placebo −0.5499, p 0.0323)?
Answer: 0.1244

Question: And the “Change in brain volume, mean value: Left-Cerebellum-Cortex” value (Low dose group, week 52 vs baseline, vMRI, placebo −0.6899, p 0.0005)?
Answer: −0.2695

Question: And the “Change in brain volume, mean value: Right-Cerebellum-Cortex” value (Low dose group, week 52 vs baseline, vMRI, placebo −0.7248, p 0.0090)?
Answer: −0.3209

Question: And the “Change in brain volume, mean value: Right-Cerebral-White-Matte” value (Low dose group, week 52 vs baseline, vMRI, placebo −1.4416, p 0.0157)?
Answer: −1.0753

Question: What about the “Change in brain volume, mean value: ctx-rh-lateral orbitofrontal” value (Low dose group, week 52 vs baseline, vMRI, placebo −1.5322, p 0.0146) of the same compound?
Answer: −0.8995

Question: What about the “Change in brain volume, mean value: Left-Cerebral-White-Matter” value (Low dose group, week 52 vs baseline, vMRI, placebo −1.5679, p 0.0215) of the same compound?
Answer: −1.2418

Question: And the “Change in brain volume, mean value: Whole_brain” value (Low dose group, week 52 vs baseline, vMRI, placebo −1.5952, p 0.0054)?
Answer: −1.3142

Question: What about the “Change in brain volume, mean value: Right-Cerebellum-White-Matter” value (Low dose group, week 52 vs baseline, vMRI, placebo −1.6919, p 0.0014) of the same compound?
Answer: −0.89

Question: And the “Change in brain volume, mean value: Left-Cerebellum-White-Matter” value (Low dose group, week 52 vs baseline, vMRI, placebo −2.0490, p 0.0001)?
Answer: −0.9201

Question: What about the “Change in brain volume, mean value: ctx-lh-insula” value (Low dose group, week 52 vs baseline, vMRI, placebo −2.6470, p 0.0030) of the same compound?
Answer: −1.9609

Question: And the “Change in brain volume, mean value: ctx-rh-insula” value (Low dose group, week 52 vs baseline, vMRI, placebo −2.6510, p 0.0056)?
Answer: −1.9976

Question: What about the “Change in brain volume, mean value: ctx-rh-superior temporal” value (Low dose group, week 52 vs baseline, vMRI, placebo −2.9861, p 0.0013) of the same compound?
Answer: −2.1332

Question: What about the “Change in brain volume, mean value: Left-Hippocampus” value (Low dose group, week 52 vs baseline, vMRI, placebo −3.0880, p 0.0232) of the same compound?
Answer: −2.3402

Question: What about the “Change in brain volume, mean value: ctx-rh-inferior temporal” value (Low dose group, week 52 vs baseline, vMRI, placebo −3.2601, p 0.0124) of the same compound?
Answer: −2.6157

Question: And the “Change in brain volume, mean value: ctx-lh-entorhinal” value (Low dose group, week 52 vs baseline, vMRI, placebo −3.8173, p 0.0195)?
Answer: −2.97
